{"source": "patent US20100063102A1", "about": "“TREATMENT OF FAECAL INCONTINENCE” (UROGENE, priority 2007, published 2010)", "system": "striated anal sphincter", "experiment": "Effect on the electromyographic activity of the rabbit striated anal sphincter under bladder irritation (SS-EMG)", "format": "in vivo", "description": "The effect of the HP749 compound was tested on rabbits under conditions of bladder irritation. Female rabbits of the New Zealand race weighing from 2.5 to 3.5 kg were used. The bladder irritation was caused by transcontinuous bladder infusion of 0.5% acetic acid. Under these conditions, the striated anal sphincter electromyography is increased. Throughout the experiment, the animal was placed in the supine position and anaesthetized with 2-3% of halothane. The striated sphincter electromyography (SS-EMG) was carried out using two electrodes (30-gauge needle) placed percutaneously in the striated anal sphincter, approximately 5-10 mm from the anus (laterally). The electric signals were amplified on an ML136 preamplifier (AD Instruments, PanLab, Barcelona, Spain), filtered below 1 Hz and above 5 KHz and presented in a PowerLab window. The striated sphincter electromyography (SS-EMG) was recorded continuously during the cystometry. Cumulative doses of the HP749 compound (0, 1, 3 and 5 mg/kg) were administered through an intravenous canula connected to the ear vein. The medicaments in saline solution were freshly prepared before each experiment and administered in a volume of 1 ml, followed by rinsing with 1 ml of physiological saline solution. The results were expressed by the mean±the standard error of the […]. The electromyographic values obtained under conditions of irritation after administration of a placebo were used as control values. The effects of the HP749 compound were analysed and compared with the control values by means of a Wilcoxon test. The results obtained were considered to be significant when p<0.05.", "note": "Entries after “also recorded” stand apart in the source; their conditions may differ.", "data": [{"smiles": "CCCN(c1ccncc1)n1ccc2ccccc21", "note": "[HP749, N-propyl-N-(4-pyridinyl)-1H-indol-1-amine]", "values": [{"measurement": "mean increase in the EMG activity compared with the control value", "setting": "anaesthetized female New Zealand rabbits, bladder irritation with 0.5% acetic acid, cumulative i.v. doses 1, 3 and 5 mg/kg, control = placebo, p<0.01", "value": 155, "unit": "%"}, {"measurement": "effect on the electromyographic (EMG) activity of the striated anal sphincter", "setting": "at all the doses (1, 3 and 5 mg/kg i.v.), FIG. 1, Wilcoxon test vs placebo control", "value": "significant effect; also recorded: powerful effect"}, {"measurement": "dose at which the effect on the external anal sphincter appeared to have reached its maximum", "setting": "rabbits, i.v., lowest dose tested", "value": 1, "unit": "mg/kg"}]}]}
